From patent US7595313B2, “Nitric oxide donating diuretic compounds, compositions and methods of use” (NicOx, S.A., priority 2005, dated 2009) come the findings set out here.

SMILES strings stand for the structures. Marks after values point to notes of the source that are not given here.

For one data set, the system named is Male Wistar rats. Briefly: Determination of the diuresis (urine volume over 6 hours after oral dosing). The format is in vivo, rat. In outline: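 Male Wistar rats (180-200 g) in metabolic cages, fasted 18 h, water withdrawn 90 min before dosing. Compounds in 0.5% Methocel given p.o. at 30 or 3 mg/kg; urine volume collected over 6 h. Mean ±SEM, n=6 or 7.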
The subject of a further data set is Dahl salt sensitive rats. Description: Blood pressure determination under in vivo conditions in the Dahl salt sensitive rat. The conditions noted are these: Dahl salt sensitive rats on high salt (8%) diet, gavage twice a day, 30 mg/kg HCT equivalent, telemetry, FIG. 1. As for the experimental part:
The effect of subchronic administration of Example 1c and hydrochlorothiazide (HCT) on blood pressure was assessed in telemeterized male Dahl salt sensitive rats (5-6 weeks old; 125-150 g) fed a high salt (8%) diet for 4 weeks. Compounds were administered twice a day for 7 eight days via gavage at 30 mg/kg HCT equivalent in a 0.5% methylcellulose vehicle. Blood pressure was continuously monitored by telemetry and reported as a change in mean arterial blood pressure (MABP) over a 24 h period.

Data set [1] relates to Spontaneously Hypertensive rats (SHR). Briefly: Blood pressure determination under in vivo conditions in the Spontaneously Hypertensive rat. Conditions: gavage twice a day, 30 mg/kg HCT equivalent, telemetry, FIG. 2. The protocol:
The effect of subchronic administration of Example 17b and hydrochlorothiazide (HCT) on blood pressure was assessed in telemeterized male Spontaneously Hypertensive rats (SHR; 9-10 weeks old; 250-300 g). Compounds were administered twice a day for 7 eight days via gavage at 30 mg/kg HCT equivalent in a 0.5% methylcellulose vehicle. Blood pressure was continuously monitored by telemetry and reported as a change in mean arterial blood pressure (MABP) over a 24 h period.

Data set [2] concerns isolated rat aorta precontracted with phenylephrine. Briefly: In vitro relaxant effect in rat aorta. The protocol:
The ability of Example 46b to relax isolated rat aorta precontracted with phenylephrine (1 μM) was studied. Example 46b was an efficacious relaxant agent in the rat aorta with an EC50 value of ˜7 μM. The vasorelaxant response elicited by Example 46b was abolished in the presence of ODQ, a potent and selective inhibitor of nitric oxide (NO)-sensitive guanylyl cyclase.

Another data set has as its system plasma renin. Description: Rat renin inhibition under in vivo conditions (chronic administration via mini-osmotic pumps). The conditions noted are these: for RENIN (Relative Units) DAY 0: Day 0 tail vein blood sample; for RENIN (Relative Units) DAY 0 / RENIN (Relative Units) Day 29: male Wistar rats, N=8; for RENIN (Relative Units) Day 29: terminal plasma day 29 after 28 days s.c. mini-pump, 10 mg/kg/day molar equivalent doses. As for the experimental part: (§1) The effect of chronic administration of Example 51 and hydrochlorothiazide (HCT) on plasma aldosterone and renin levels was tested in male Wistar rats. Compounds were administered via mini-osmotic pumps implanted subcutaneously in the scapular area of the rats using asceptic techniques. Molar equivalent doses of HCT and Example 51 (10 mg/kg/day) in 50% DMSO/PEG300 were delivered for 28 days via Alzet mini-pumps and compared to vehicle treated animals. A 250 μl blood sample was obtained from tail vein cannulae for analysis of aldosterone and plasma renin levels (Day 0). Terminal plasma was collected on day 29 for analysis of aldosterone and plasma renin levels. Plasma renin and aldosterone were measured utilizing commercially available kits (Cayman Chemical; Ann Arbor, Mich. and Alpha Diagnostics; San Antonio, Tex., respectively).

For the next data set, the system named is plasma aldosterone. Description: Rat aldosterone inhibition under in vivo conditions (chronic administration via mini-osmotic pumps). The conditions noted are these: for ALDOSTERONE (pg/ml) DAY 0: Day 0 tail vein blood sample; for ALDOSTERONE (pg/ml) DAY 0 / ALDOSTERONE (pg/ml) Day 29: male Wistar rats, N=8; for ALDOSTERONE (pg/ml) Day 29: terminal plasma day 29 after 28 days s.c. mini-pump, 10 mg/kg/day molar equivalent doses. As for the experimental part:
as §1

Setting [3] is: p.o. 3 mg/kg in 0.5% Methocel, male Wistar rats, 6 hours, mean ± SEM, n=6 or 7.
The mark [4] stands for this setting: day 29, 10 mg/kg/day for 28 days, result in words.

`NS(=O)(=O)c1cc2c(cc1Cl)NC(CCCCCO[N+](=O)[O-])NS2(=O)=O` (centres unmarked) [Example 1c, 2H-1,2,4-Benzothiadiazine-7-sulfonamide, 6-chloro-3,4-dihydro-3-[5-(nitrooxy)pentyl]-, 1,1-dioxide] showed a melting point of 158 to 161 °C. Also, the “Urine collected in 6 hours (mL) (3 mg/kg)” value (“Urine collected … (3 mg/kg)” below) in the data set with Male Wistar rats (setting [3]) worked out at 6.6 ± 0.4 mL. In the data set with Male Wistar rats (p.o. 30 mg/kg in 0.5% Methocel, male Wistar rats, 6 hours, mean ± SEM, n=6 or 7), the “Urine collected in 6 hours (mL) (30 mg/kg)” value amounted to 7.6 ± 0.5 mL. The “reductions in blood pressure (mean arterial blood pressure) during the treatment period” value with Dahl salt sensitive rats was “approximately 5 mm Hg”.
`NS(=O)(=O)c1cc2c(cc1Cl)NC(CCCCO[N+](=O)[O-])NS2(=O)=O` (centres unmarked) [Example 17b, 2H-1,2,4-Benzothiadiazine-7-sulfonamide, 6-chloro-3,4-dihydro-3-[4-(nitrooxy)butyl]-, 1,1-dioxide] registered a melting point of 171 to 179 °C. For the same compound, the “reductions in blood pressure (mean arterial blood pressure) during the treatment period, larger than with HCT” value in data set [1] was 5-6 mm Hg.
Compound `NS(=O)(=O)c1cc2c(cc1Cl)NCN(CCCCCO[N+](=O)[O-])S2(=O)=O` [Example 46b, 2H-1,2,4-Benzothiadiazine-7-sulfonamide, 6-chloro-3,4-dihydro-2-[5-(nitrooxy)pentyl]-, 1,1-dioxide] displayed a melting point of 120 to 123 °C. The “Urine collected … (3 mg/kg)” value in the data set with Male Wistar rats (setting [3]) is given as 7.3 ± 0.7 mL. Besides, the “vasorelaxant response in the presence of ODQ” value in data set [2] (ODQ, inhibitor of NO-sensitive guanylyl cyclase, rat aorta precontracted with phenylephrine (1 μM)) is recorded as “abolished”. The EC50 in data set [2] (Rattus norvegicus, aortic rings precontracted with phenylephrine (1 μM), relaxation as % of maximum by papaverine) was around 7 µM.
Take `NS(=O)(=O)c1cc2c(cc1Cl)NCN(CCO[N+](=O)[O-])S2(=O)=O` [Example 51, 2H-1,2,4-Benzothiadiazine-7-sulfonamide, 6-chloro-3,4-dihydro-2-[2-(nitrooxy)ethyl]-, 1,1-dioxide]: the melting point was 161 to 163 °C (dec.). Moreover, the “Urine collected … (3 mg/kg)” value in the data set with Male Wistar rats (setting [3]) is 8.0 ± 1.1 mL. In addition, in the data set with plasma renin, the “RENIN (Relative Units) DAY 0” value was determined as 6.1 ± 0.3 Relative Units and the “RENIN (Relative Units) Day 29” value is given as 9.5 ± 0.5^a,b Relative Units. Besides, the “plasma renin measured on day 29 as compared to vehicle or HCT treated rats” value in the data set on plasma renin (setting [4]) was “significantly lowered”. Further, in the data set on plasma aldosterone, the “ALDOSTERONE (pg/ml) DAY 0” value turned out to be 540.8 ± 38.9 pg/mL and the “ALDOSTERONE (pg/ml) Day 29” value is given as 1326.6 ± 118.7^c pg/ml. Besides, the “plasma aldosterone measured on day 29 as compared to vehicle or HCT treated rats” value in the data set on plasma aldosterone (setting [4]) is on record as “significantly lowered”.
Compound `NS(=O)(=O)c1cc2c(cc1Cl)NCN(C(CO)CO)S2(=O)=O` [Example 78b, 2H-1,2,4-Benzothiadiazine-7-sulfonamide, 6-chloro-3,4-dihydro-2-[2-hydroxy-1-(hydroxymethyl)ethyl]-, 1,1-dioxide] came in with a melting point of 139 to 143 °C. Further, the “Urine collected … (3 mg/kg)” value in the data set on Male Wistar rats (setting [3]) was found to be 2.7 ± 0.8 mL.
As for `NS(=O)(=O)c1cc2c(cc1Cl)NC(CCc1cc(CO[N+](=O)[O-])cc(CO[N+](=O)[O-])c1)NS2(=O)=O` (centres unmarked) [Example 80b, 2H-1,2,4-Benzothiadiazine-7-sulfonamide, 3-[2-[3,5-bis[(nitrooxy)methyl]phenyl]ethyl]-6-chloro-3,4-dihydro-, 1,1-dioxide], the melting point lay in the range of 101 to 104 °C. Moreover, the “Urine collected … (3 mg/kg)” value in the data set on Male Wistar rats (rat, in vivo, po) is reported as 3.9 ± 0.5 mL.
As to `NS(=O)(=O)c1cc2c(cc1Cl)NCNS2(=O)=O` [HCT, hydrochlorothiazide, reference compound], in the data set with plasma renin, the “RENIN (Relative Units) DAY 0” value is 5.0 ± 0.6 Relative Units and the “RENIN (Relative Units) Day 29” value was determined as 24.6 ± 1.0 Relative Units. Also, in the data set on plasma aldosterone, the “ALDOSTERONE (pg/ml) DAY 0” value was 411.5 ± 41.8 pg/mL and the “ALDOSTERONE (pg/ml) Day 29” value was 2081.0 ± 232.1 pg/mL.

What is called melting point is the temperature of the solid-liquid transition. For orientation: EC50 means the midpoint of the concentration-response curve. Higher therefore signals lower potency in that assay.
